Legend:
[1] = test system: hER; assay: Fluorescence-based competitive binding assay for hER (displacement of fluormone ES2); design: species or system human; details: RBA = IC50 of tamoxifen/IC50 of test molecule; tamoxifen set at 1
Method: The estrogen receptor competitor assay kits (Panvera, Madison, Wis.) were used to determine the ability of test molecules to displace the fluormone, ES2, from hER -ES2 or hER -ES2 complex. Serial dilutions of each test molecule were prepared in methanol or DMSO. The recombinant hER or hER (7 nM) was preincubated with ES2 (1 nM) in screening buffer. After the preincubation, the test molecules and ER-ES2 complex solution were added into the 96-well microplate to produce a final volume of 100 μl per well. The reaction was incubated at room temperature for 1 hr and the polarization values were measured by using fluorescence microplate reader, Polarion (Tecan, Research Triangle Park, N.C.) with excitation wavelength 495 nm and emission wavelength 535 nm. The polarization value versus test molecule concentration curves was analyzed by graphfit software to generate IC50 values.
In this assay, recombinant hER and the commercial synthetic estrogen, ES2 containing fluorescence polarization property, are used. This assay is a homogenous assay. When the assay solution only contains ES2, the solution exerts weak fluorescence polarization property due to the quick rotation of free ES2 molecule. […] Addition of the antiestrogen to the ES2/hER displaces ES2 from hER and results in the whole solution exerting less fluorescence polarization property than the solution without antiestrogen.

[2] = test system: MCF-7 cells; assay: hERα positive breast cancer cell proliferation assay; format: cell-based, human; details: for activity at 5 µM: Homo sapiens, MCF7, 72 h, MCF-7 cells, DMSO = 1, read-out: Relative Cancer Cell Proliferation Effects at 5 μM
Method: (§1) MCF-7 or MDA-MB-231 cells were inoculated into 12-well culture plates at 10000 cells in 2 ml maintained medium per well. Cells were allowed to attach to the bottom for 24 hrs incubation, then the seeding medium was removed and replaced by the experimental medium (phenol red-free DMEM supplemented with 5% charcoal-stripped fetal bovine serum and Penicillin (100 unit/ml)/Streptomycin ([…])). After 24 hr incubation, the test molecules dissolved in DMSO were added in the wells. […] The culture was continued for 3 days and the medium and tested compounds were replaced every two days. The final cell numbers were estimated with CellTiter proliferation assay kit (Promega, Madison, Wis.) by measuring the absorbance at 570 nm, which is directly proportional to the number of living cells in the culture.
MCF-7 cell line was used to perform this assay and the description of this assay as mentioned above. […] DMSO was used as reference.

[3] = target: T1, hERα (Homo sapiens, UniProt P03372); assay: Transient transfection reporter assay for hERα in MCF-7 cells; format: cell-based; design: Relative Estrogenic Activity: dose or concentration left out as unconfirmed; details: for Relative Estrogenic Activity: MCF-7 cells transfected with hERα, DMSO set as 1; for Relative Antiestrogenic Activity at 2.5 μM: with 1 nM estradiol, 1 nM E2 used as reference (1); for estrogenic effect: compared with DMSO and tamoxifen
T1 construct: mammalian expression plasmid containing full length human ER cDNA, pCMV-hER; expressed in transfected cells; host or cells: MCF-7 human breast cancer cells
T1 sequence (P03372 1-595): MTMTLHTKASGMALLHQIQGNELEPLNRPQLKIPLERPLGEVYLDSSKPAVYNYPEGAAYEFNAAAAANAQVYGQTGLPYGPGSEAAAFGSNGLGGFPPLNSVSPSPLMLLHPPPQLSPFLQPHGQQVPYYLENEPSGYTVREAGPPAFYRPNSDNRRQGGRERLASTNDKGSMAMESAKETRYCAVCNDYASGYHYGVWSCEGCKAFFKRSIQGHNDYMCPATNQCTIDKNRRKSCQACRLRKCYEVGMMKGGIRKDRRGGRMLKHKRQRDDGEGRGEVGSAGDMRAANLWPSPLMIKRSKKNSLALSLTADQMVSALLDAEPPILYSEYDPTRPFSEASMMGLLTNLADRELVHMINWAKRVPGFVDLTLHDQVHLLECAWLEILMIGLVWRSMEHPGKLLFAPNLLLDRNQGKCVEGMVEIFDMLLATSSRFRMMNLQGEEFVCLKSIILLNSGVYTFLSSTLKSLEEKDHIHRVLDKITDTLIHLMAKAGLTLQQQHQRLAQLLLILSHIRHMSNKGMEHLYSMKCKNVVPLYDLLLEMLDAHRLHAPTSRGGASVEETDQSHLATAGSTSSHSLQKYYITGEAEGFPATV
Method: For the transient transfection reporter assays, the cells were plated in triplicate in 12-well plates at a density of 300000 cells/well in the phenol red-free DMEM (GIBCO/BRL, Grand Island, N.Y.) supplemented with 10% charcoal-stripped fetal bovine serum (Hyclone, Logan, Utah), Penicillin (100 unit/ml)/Streptomycin ([…]), 2 mML-glutamine and 1 mM sodium Pyruvate. 24 hrs later, the cells were transfected with three plasmids by using Superfect transfection kit (Qiagen, Valencia, Calif.). For the detection of hER activity, cells were transfected with 2 g hER expression plasmid (pCMV-ER ), 6 g luciferase reporter plasmid containing estrogen receptor response element (PGL-TATA-Luc), and 600 ng normalization control, β-galactosidase reporter plasmid (pCMV ). For the detection of hER activity, cells were transfected with 3 ug hER expression plasmid (pcDNA3.1-hER), 6 g luciferase reporter plasmid containing estrogen receptor response element (PGL-TATA-Luc), and 600 ng pCMV. For determining the influence of ER's major coactivator in breast, AIB 1, 2 g pcDNA3.1-AIB1 was added into the transfection plasmid solution mentioned previously.
The transfected cells were rinsed with PBS and treated with various concentrations of test molecules and one […] (vehicle, DMSO or methanol) in phenol red-free culture medium. After incubation for further 24 hrs, the cells were washed with PBS and lysed with lysis buffer (Pierce, Rockford, Ill.). The lysate was used to determine the luciferase activity for ER's activity and the β-galactosidase activity for the normalization of transfection efficiency.
For the luciferase activity assay, 20 μl of lysate and 100 μl luciferase assay buffer (Promega, Madison, Wis.) were added into a well of 96-well plate. The luminescence was detected by using luminescence microplate reader, LumiCount (Packard, Boston, Mass.). For the β-galactosidase activity assay, […] β-galactosidase assay buffer (Clontech, Palo Alto, Calif.) were added into a well of 96-well plate. The β-galactosidase activity was measured as luminescence strength by using luminescence microplate reader, LumiCount (Packard, Boston, Mass.). The normalized reporter activity was calculated by the luciferase activity divided by that of β-galactosidase.
The transient transfection reporter assay was used to determine the estrogenic or antiestrogenic activity of tested compounds in employed human breast cancer cells, MCF-7 cells that are cotransfected with hERα expression and reporter plasmids. […] […] The estrogenic (antiestrogenic) activity was determined by dividing the luciferase activity by the β-galactosidase activity. To determine the influence of estrogen receptor's major coactivator in breast cancer, AIB1, for the compounds' estrogenic activity, the expression vector of AIB1 was additionally cotransfected with the plasmids mentioned above.

[4] = test system: MDA-MB-231 cells; assay: hER negative breast cancer cell proliferation assay; format: cell-based, human; details: hER negative cell line
Method: as §1
In this assay, MDA-MB-231 breast cancer cell line, a hER negative cell line, was used. DMSO was used as reference.

SMILES	Relative Binding Affinity [1]	activity at 5 µM [2]	Relative Estrogenic Activity [3]	Relative Antiestrogenic Activity at 2.5 μM [3]	antiestrogenic activity against various concentrations of estrogen (FIG. 4) ([3]; MCF-7 cells, hERα)	estrogenic effect ([3]; MCF-7 cells, hERα)	inhibition effects against MCF-7 cell proliferation [2]	antiestrogenic / inhibition activity ([3]; against 1 nM estrogen)	stimulation of growth of DMSO-treated MCF-7 cells ([2]; 2 nM estrogen)	inhibition of MCF-7 cell proliferation ([2]; relative to DMSO)	proliferation effects against MDA-MB-231 cells (FIG. 6, words) [4]
CCCCNC(=O)CCCCCCCCCCOCC1Cc2ccccc2CN1C(=O)Cc1cccc(F)c1 (stereo not shown) [Compound 12, 11-{2-[2-(3-Fluoro-phenyl)-acetyl]-1,2,3,4-tetrahydro-isoquinolin-3-ylmethoxy]-undecanoic acid butylamide]	0.267	120%	1.68	1.01							
CCCCNC(=O)CCCCCCCCCCOCC1Cc2ccccc2CN1C(=O)c1ccccc1F (stereo not shown) [Compound 1]	0.225	106%	1.02	1.17	can antagonize estrogen's action in a dose dependent manner	do not exert any estrogenic effects					
CCCCNC(=O)CCCCCCCCCCOCC1Cc2ccccc2CN1C(=O)c1cccc(C)c1 (stereo not shown) [Compound 8, 11-[2-(3-Methyl-benzoyl)-1,2,3,4tetrahydro-isoquinolin-3-ylmethoxy]-undecanoic acid butylanide]	0.156	84%	1.32	0.75			slight inhibition effects	moderate antiestrogenic effect			
CCCCNC(=O)CCCCCCCCCCOCC1Cc2ccccc2CN1C(=O)c1ccc(OC)cc1 (stereo not shown) [Compound 5]	0.14	98%	1.06	1.64		do not exert any estrogenic effects					
CCCCNC(=O)CCCCCCCCCCOCC1Cc2ccccc2CN1C(=O)c1cccc(Cl)c1 (stereo not shown) [Compound 10, 11-[2-(3-Chloro-benzoyl)-1,2,3,4tetrahydro-isoquinolin-3-ylmethoxy]-undecanoic acid butylamide]	0.156	86%	0.68	0.83		do not exert any estrogenic effects	slight inhibition effects				
CCCCCCCCNC(=O)CCCCCCCCCCOCC1Cc2ccccc2CN1C(=O)c1cccc(F)c1 (stereo not shown) [Compound 11, 11-[2-(3-Fluoro-benzoyl)-1,2,3,4-tetrahydro-isoquinolin-3-ylmethoxy]-undecanoic acid octylamide]	0.177	100%	0.83	1.11		do not exert any estrogenic effects					
C[C@]12CC[C@@H]3c4ccc(O)cc4CC[C@H]3[C@@H]1CC[C@@H]2O [Compound E2, estradiol, reference compound]									150%		
CC/C(=C(\c1ccccc1)c1ccc(OCCN(C)C)cc1)c1ccccc1 [Tamoxifen, reference compound]		42%								58%	moderate anti-proliferation effects
CCCCNC(=O)CCCCCCCCCCOCC1Cc2ccccc2CN1C(=O)c1ccc(F)cc1 (stereo not shown) [Compound 3]	0.264	91%	1.09	0.93		do not exert any estrogenic effects	slight inhibition effects				
CCCCNC(=O)CCCCCCCCCCOCC1Cc2ccccc2CN1C(=O)c1ccc(C)cc1 (stereo not shown) [Compound 9, 11-[2-(4-Methyl-benzoyl)-1,2,3,4-tetrahydro-isoquinolin-3-ylmethoxy]-undecanoic acid butylamide]	0.132	101%	1.72	1.34							
